Data: US8703811B2, “Small molecule inhibitors of Plasmodium falciparum dihydroorotate dehydrogenase” (Genzyme Corporation, priority 2008, dated 2014)
Like-named read-outs stand apart in the source and are kept apart here.

Experiments:
Type in all cases: cell-based
[1] = test system: P. falciparum D10-scDHODH; test: Inhibition of transgenic D10-scDHODH parasites, [3H]-hypoxanthine uptake; conditions: for IC50: Plasmodium falciparum, D10, read-out: D10-scDHODH IC50; for efficacy against D10-scDHODH strain compared to D10 parent strain: dose-effect curves, FIG. 5
Description: (§1) P. falciparum strains D10, 3D7, HB3, and Dd2 were obtained from the Malaria Research and Reference Reagent Resource Center (Manassas, Va.). The parasite strains were maintained in vitro by method of Trager and Jensen. The inhibition of P. falciparum growth in the presence of drug was assessed by the relative reduction of [^3H]-hypoxanthine uptake as previously described. Inhibition data were fitted to Equation 1 using non-linear regression analysis except that the relative velocity of parasite growth was substituted for the rate of product formation.
Transgenic parasites expressing scDHODH were generated as described by Painter et al. except that full length scDHODH was cloned directly into the pGem3Z vector without a GFP tag. The resultant plasmid was transfected into ring stages of P. falciparum D10 by electroporation and maintained in culture using standard methods under the selection of WR99210.

P. falciparum D10 = test: Inhibition of in vitro P. falciparum culture, [3H]-hypoxanthine uptake, D10; conditions: Plasmodium falciparum, D10, Erythrocyte, read-out: D10 IC50
Description: as §1

P. falciparum Dd2 = test: Inhibition of in vitro P. falciparum culture, [3H]-hypoxanthine uptake, Dd2; conditions: Plasmodium falciparum, DD2, Erythrocyte, read-out: Dd2 IC50
Description: as §1

P. falciparum 3D7 = test: Inhibition of in vitro P. falciparum culture, [3H]-hypoxanthine uptake, 3D7; conditions: Plasmodium falciparum, 3D7, Erythrocyte, read-out: 3D7 IC50
Description: as §1

P. falciparum HB3 = test: Inhibition of in vitro P. falciparum culture, [3H]-hypoxanthine uptake, HB3; conditions: Plasmodium falciparum, HB3, Erythrocyte, read-out: HB3 IC50
Description: as §1

[2] = [3H]-hypoxanthine uptake by parasite infected erythrocytes

Compound | IC50 [1] [nM] | efficacy against D10-scDHODH strain compared to D10 parent strain [1] | IC50 (P. falciparum D10; [2]) [nM] | IC50 (P. falciparum Dd2; [2]) [nM] | IC50 (P. falciparum 3D7; [2]) [nM] | IC50 (P. falciparum HB3; [2]) [nM] | IC50 (P. falciparum D10) [nM] | IC50 (P. falciparum Dd2) [nM] | IC50 (P. falciparum 3D7) [nM] | IC50 (P. falciparum HB3) [nM]
O=C1C(O)=C([C@H]2CC[C@H](c3ccc(Cl)cc3)CC2)C(=O)c2ccccc21 [Atovaquone, reference compound] | > 2000 | significantly reduced drug efficacy | 0.42 | 0.2 | 0.18 | 0.22 |  |  |  | 
CCN(CC)CCCC(C)Nc1ccnc2cc(Cl)ccc12 (centres unmarked) [Chloroquine, reference compound] | 13 | equally sensitive |  |  |  |  | 15 | 180 | 10 | 8
CCc1nc(N)nc(N)c1-c1ccc(Cl)cc1 [Pyrimethamine, reference compound] | 47 |  | 55 | > 10000 | 36 | 940 |  |  |  | 
